How the values were obtained:
[1] = Activity of superoxide dismutase mimetic toward hydrogen peroxide (selectivity); assay type: biochemical
CT26 mouse colon tumor = test: Mouse colon tumor model, first experiment (CT26 fragments implanted in BALB/c mice); assay type: in vivo; settings: SOD mimetic 6 mg/kg IP twice daily from day 6, combined with gemcitabine 80 mg/kg IP on days 6, 9, 12, 15; compared with gemcitabine alone
Description: A. In a first experiment, fragments of CT26 mouse colon tumor were implanted in female BALB/c mice and allowed to grow for 6 days to a size of about 110 mg (107-115 mg).
On this day, day 6, mice were administered 6 mg/kg of KM4403 or KM4419 intraperitoneally (IP) and dosing was continued twice daily for the duration of the study.
In some groups, gemcitabine was administered on days 6, 9, 12 and 15 at a dosage of 80 mg/kg, also via IP, 10 minutes after the administration of KM4403 or KM4419.

[2] = combination with interleukin-2; Samlowski et al., Nature Medicine (2003); cited from earlier work
C26 colon tumor = test: Mouse colon tumor model, second experiment (C26 fragments implanted in BALB/c mice); assay type: in vivo; settings: KM4419 10 mg/kg or 20 mg/kg twice daily from day 7, combined with gemcitabine 120 mg/kg IP on days 7, 13, 16, both KM4419 dosage levels, FIG. 1
Description: B. In a second experiment, fragments of C26 colon tumor were implanted in female BALB/c mice and grown until day 7 at which point they averaged 123 mg.
Groups 1 and 2 (n=8) were given 10 mg/kg or 20 mg/kg of KM4419 twice daily starting at day 7.
In groups 3 and 4 (n=8), gemcitabine was administered at 120 mg/kg or 160 mg/kg IP on days 7, 13 and 16.
In groups 5 and 6 (n=8), both gemcitabine and KM4419 were administered according to the foregoing regimens. Gemcitabine was administered 10 minutes after KM4419 in these groups. The levels of KM4419 were 10 mg/kg and 20 mg/kg, respectively, and the dose of gemcitabine was 120 mg/kg.

[3] = test system: human A549 non-small lung carcinoma cells; test: Non-small cell lung cancer tumor model (A549 cells implanted into flanks of BALB/c mice); assay type: in vivo; settings: KM4419 30 mg/kg IP on days 9-23, combined with paclitaxel 12.5 mg/kg IP on days 9 and 13; compared with either drug alone; FIG. 2
Description: In a manner similar to that of Example 1, human A549 non-small lung carcinoma cells were implanted into the flanks of female BALB/c mice, and the tumors were allowed to grow until day 9. Group 1 was administered only vehicle. Group 2 (n=10) was administered only paclitaxel at 12.5 mg/kg IP on days 9 and 13. In group 3 (n=10), the mice were administered 30 mg/kg of KM4419 IP on days 9-23. In group 4 (n=10), a combination of these protocols was administered.

Compound	activity toward hydrogen peroxide [1]	tumor size (CT26 mouse colon tumor)	also measured
CC(C)c1cc(C(=O)O)c([O-])c(C(C)C)c1.CC(C)c1cc(C(=O)O)c([O-])c(C(C)C)c1.[Cu+2] [CuDIPS, copper [II] diisopropylsalicylate]	significant activity		
[Cl][Mn-5]1234([Cl])[n+]5c6cccc5C[NH+]1[C@@H]1CCCC[C@H]1[NH+]2CC[NH+]3[C@@H]1CCCC[C@H]1[NH+]4C6 (stereo partly drawn) [KM4403]		decreased tumor size	antitumor effect of IL-2 in combination treatment [2]: potentiates the antitumor effect of IL-2
[Cl][Mn-5]1234([Cl])[n+]5c6cccc5C[NH+]1[C@H]1CCCC[C@@H]1[NH+]2CC[NH+]3[C@H]1CCCC[C@@H]1[NH+]4C6 (stereo partly drawn) [KM4419]		decreased tumor size	tumor recurrence (C26 colon tumor): delayed recurrence; tumor size (C26 colon tumor; compared with gemcitabine alone): decreased the tumor size more effectively than gemcitabine alone; effectiveness on tumor growth [3]: more effective than either drug taken alone
mangafodipir	significant activity		
manganese [III] tetrakis-(5,10,15,20)-benzoic acid porphyrin [MnTBAP]	significant activity		

— patent publication US9198893B2, “Combination antitumor therapy” (GALERA LABS, LLC, priority 2008, dated 2015)
